Source: article PMC3480206 (Future microbiology, 2012)
In brackets after ≈: the same amount, converted by molar mass. Entries after “also recorded” stand apart in the source; their conditions may differ. Where two headings read alike, the source gives them in different places.

Assays:
Aspergillus fumigatus = assay: MIC on Aspergillus fumigatus; type: cell-based
[1] = Micronucleus assay in rats; details: rat, in vivo
[2] = system: Salmonella–Escherichia coli; assay: Salmonella–Escherichia coli/microsome plate incorporation assay; type: cell-based; details: In vitro mutagenicity studies
Streptococcus pneumoniae = assay: MIC on Streptococcus pneumoniae; type: cell-based
Mtb [3] = details: cited from earlier work
Mtb [4] = assay: Broth microdilution MIC against Mtb; type: cell-based, Mycobacterium tuberculosis
[5] = system: Mycobacterium tuberculosis H37Rv; details: mouse, in vivo; cited from earlier work
[6] = human, in vivo
[7] = IND-directed repeat-dose toxicology studies
[8] = system: Mtb gene clusters GC82 and GC120, iniBAC operon; details: cited from earlier work
Enterococci spp. = assay: MIC on Enterococci spp.; type: cell-based
[9] = system: Helicobacter pylori clinical isolates; assay: MIC and time-kill on Helicobacter pylori; type: cell-based
[10] = mice; cited from earlier work
Candida spp. = assay: MIC on Candida spp.; type: cell-based
[11] = system: Mycobacterium tuberculosis H37Rv; assay: In vitro drug interaction, checkerboard titration by 96-well microdilution; type: cell-based
[12] = system: Mycobacterium tuberculosis H37Rv; assay: BACTEC MIC; type: cell-based; details: ATCC27294|H37RV
[13] = Phase Ib, multiple daily doses; type: in vivo, healthy humans
Haemophilus influenzae = assay: MIC on Haemophilus influenzae; type: cell-based
[14] = system: Mycobacteria avium, marinum, chelonae and abscessus; assay: MIC on other pathogenic Mycobacteria; type: cell-based
[15] = rat, in vivo; cited from earlier work
[16] = Phase Ia, escalating single dose; details: for mean maximum concentration: fasting human subjects
Mtb [17] = details: 10 mg/kg, cited from earlier work
Mtb [18] = assay: Rapid, high-dose model of TB infection; type: in vivo, mice; details: murine model of acute infection
[19] = in vivo
Mtb [20] = details: cited from earlier work; remark: listed apart in the source
[21] = PK evaluation on coadministration with second-line drugs
CYP3A4 = details: cited from earlier work
[22] = rats; cited from earlier work
Neisseria gonorrhoeae = assay: MIC and MBC on Neisseria gonorrhoeae; type: cell-based
Cryptococcus neoformans = assay: MIC on Cryptococcus neoformans; type: cell-based
[23] = Neurological safety assessment, rats; type: in vivo; details: 90-day oral dosing at 30, 120 and 240 mg/m^2/day
[24] = system: Mycobacterium tuberculosis H37Rv; details: cited from earlier work
[25] = system: Mycobacteria bovis, M. bovis BCG and Mycobacteria fortuitum; type: cell-based
CYP450 2D6 and 2C19 = details: cited from earlier work
Mtb inside macrophages [26] = assay: Intracellular killing in Mtb-infected macrophages; type: cell-based, Mycobacterium tuberculosis; details: SQ109 with CFZ; Reddy V, Unpublished Data
[27] = Cardiovascular safety, beagle dogs
[28] = Neurological safety assessment, beagle dogs; type: in vivo; details: 90-day oral dosing at 100, 300 and 1000 mg/m^2/day
[29] = Pulmonary safety testing, beagle dogs; type: in vivo; details: single oral dosing at 75, 140 and 300 mg/m^2
Mtb inside macrophages [30] = details: cited from earlier work
[31] = In vivo pairwise drug-drug interaction studies with first-line drugs; details: pairwise studies of SQ109 with INH, RIF or streptomycin in mice or rats
[32] = Phase Ic, multiple daily 300 mg doses
Clostridium difficile = assay: MIC on Clostridium difficile; type: cell-based; details: Clostridioides difficile
[33] = 300 mg with high-fat, high-calorie meal
[34] = single oral dosing at 75, 140 and 300 mg/m^2

Question: For CC(C)=CCC/C(C)=C/CNCCNC1C2CC3CC(C2)CC1C3 (stereo not drawn) [SQ109, N-geranyl-N′-(2-adamantyl)ethane-1,2-diamine], which MIC (Aspergillus fumigatus) is on record?
Answer: 8 µg/mL (≈ 24.2 µM)

Question: And the “Micronucleus assay in rats” value [1]?
Answer: Negative

Question: And the “Salmonella–Escherichia coli/microsome plate incorporation assay” value [2]?
Answer: Negative

Question: And the MIC (Streptococcus pneumoniae)?
Answer: 2 to 4 µg/mL (≈ 6.05 to 12.1 µM)

Question: What about the “Effect on acid-fastness of Mtb” value (Mtb [3]) of the same compound?
Answer: No effect

Question: And the MIC (Mtb [4]; Mycobacterium tuberculosis)?
Answer: 0.78 µg/mL (≈ 2.36 µM)

Question: And the “MIC range” value (Mtb [4]; overall range on Mtb)?
Answer: 0.2 to 0.78 µg/mL

Question: And the “activity in model of chronic TB” value [5]?
Answer: better activity than EMB at 100 mg/kg

Question: And the safety and tolerability [6]?
Answer: safe and well-tolerated

Question: What about the “toxicities and adverse events” value ([7]; 40 mg/kg/day, three animal species, except emesis in dogs) of the same compound?
Answer: no cardiovascular, hepatic, hematologic, neurological or ocular toxicities

Question: And the NOAEL ([7]; dog, rat, nonhuman primate, in vivo)?
Answer: 30 to 40 mg/kg/day

Question: And the phospholipidosis ([7]; in vivo)?
Answer: did cause phospholipidosis

Question: And the “Activity on Mtb gene clusters GC82 and GC120” value [8]?
Answer: Downregulates

Question: And the “transcription of the iniBAC operon” value [8]?
Answer: induces

Question: And the MIC (Enterococci spp.)?
Answer: 8 to 32 µg/mL (≈ 24.2 to 96.8 µM)

Question: What about the bactericidal or bacteriostatic ([9]; H. pylori) of the same compound?
Answer: bactericidal

Question: What about the “time–kill assays versus first-line drugs” value ([9]; H. pylori) of the same compound?
Answer: better than amoxicillin and metronidazole

Question: And the MIC range ([9]; all H. pylori clinical isolates, manuscript in preparation)?
Answer: 2.5 to 15 µg/mL

Question: And the “concentration in lung and spleen compared with plasma” value [10]?
Answer: at least 45 fold

Question: What about the MIC (Candida spp.) of the same compound?
Answer: 1 to 8 µg/mL (≈ 3.03 to 24.2 µM)

Question: And the MIC ([11]; Mycobacterium tuberculosis, H37RV, read-out: MIC Alone)?
Answer: 0.5 µg/mL

Question: What about the in vitro interaction ([11]; SQ109 with AMK, Unpublished Data) of the same compound?
Answer: synergy

Question: What about the in vitro interaction ([11]; SQ109 with CFZ, Reddy V, Unpublished Data) of the same compound?
Answer: synergy

Question: What about the in vitro interaction ([11]; SQ109 with CM, Unpublished Data) of the same compound?
Answer: synergy

Question: What about the in vitro interaction ([11]; SQ109 with CS, Unpublished Data) of the same compound?
Answer: additive

Question: What about the in vitro interaction ([11]; SQ109 with ETA, Unpublished Data) of the same compound?
Answer: additive

Question: What about the in vitro interaction ([11]; SQ109 with KAN, Unpublished Data) of the same compound?
Answer: additive

Question: What about the in vitro interaction ([11]; SQ109 with MXF, Unpublished Data) of the same compound?
Answer: synergy

Question: And the in vitro interaction ([11]; SQ109 with all the rifamycins, including rifapentine and rifabutin)?
Answer: profound synergy

Question: What about the in vitro interaction ([11]; SQ109 with para-aminosalicylic acid, Unpublished Data) of the same compound?
Answer: additive

Question: And the “MIC Combination” value ([11]; checkerboard SQ109 + CFZ, Mtb H37Rv)?
Answer: 0.125 µg/mL

Question: What about the MIC [12] of the same compound?
Answer: ≤ 0.2 µg/mL

Question: What about the tolerability ([13]; 75 mg daily for 14 days or 150 mg daily for 5 days then days 9 and 14) of the same compound?
Answer: well tolerated

Question: What about the serious adverse events ([13]; Phase Ib) of the same compound?
Answer: no SAEs

Question: What about the MIC (Haemophilus influenzae) of the same compound?
Answer: 1 to 32 µg/mL (≈ 3.03 to 96.8 µM)

Question: What about the MIC [14] of the same compound?
Answer: 4 to 16 µg/mL (≈ 12.1 to 48.4 µM)

Question: What about the “bioavailability of SQ109” value [15] of the same compound?
Answer: 21.4%

Question: What about the “food effect on half-life” value [16, 33] of the same compound?
Answer: increased

Question: What about the “food effect on maximum serum concentration” value [16, 33] of the same compound?
Answer: decreased

Question: And the mean maximum concentration ([16]; 10-mg oral dose)?
Answer: 0.729 ng/mL

Question: And the mean maximum concentration ([16]; 300-mg oral dose)?
Answer: 20.2 ng/mL

Question: And the serious adverse events ([16]; Phase Ia, single oral doses 5-300 mg)?
Answer: no serious AEs

Question: What about the half-life ([16]; human, serum, oral, 300 mg) of the same compound?
Answer: 61.1 h

Question: And the “weight loss of infected mice” value (Mtb [17]; versus untreated infected mice)?
Answer: significantly reduced weight loss

Question: And the “efficacy in screening and chronic model of TB” value (Mtb [17]; mice)?
Answer: efficacious

Question: And the “efficacious dose for treatment of TB” value (Mtb [18])?
Answer: 10 mg/kg/day

Question: And the “Segment 1: effects on male and female gamete maturation, copulatory performance, fertilization, zygote development and embryo implantation” value [19]?
Answer: No impact

Question: And the “Segment 2: effects on pregnant female and development of embryo and fetus from implantation” value [19]?
Answer: No impact

Question: What about the “incorporation into trehalose monomyclate (TMM)” value (Mtb [20]) of the same compound?
Answer: increased

Question: What about the “incorporation of mycolic acids into the cell wall” value (Mtb [20]; trehalose dimycolate and arabinogalactan-bound mycolates) of the same compound?
Answer: decreased

Question: And the “exposure of mice to SQ109” value ([21]; in the presence of CS and KAN)?
Answer: slightly decreased

Question: And the “pharmacology profile on coadministration” value ([21]; mice, SQ109 and MXF coadministered)?
Answer: not affected

Question: What about the “activation of CYP450 3A4” value (CYP3A4) of the same compound?
Answer: not activated

Question: And the “metabolism by CYP450 3A4” value (CYP3A4)?
Answer: nor is it metabolized

Question: And the tissue distribution [22]?
Answer: highest concentrations of SQ109 in liver

Question: What about the “Mouse lymphoma mutation assay” value (Mouse lymphoma) of the same compound?
Answer: Negative

Question: What about the MBC (Neisseria gonorrhoeae) of the same compound?
Answer: 0.038 µg/mL (≈ 0.115 µM)

Question: What about the MIC (Neisseria gonorrhoeae) of the same compound?
Answer: 0.038 µg/mL (≈ 0.115 µM)

Question: What about the MIC (Cryptococcus neoformans) of the same compound?
Answer: 0.25 to 4 µg/mL (≈ 0.756 to 12.1 µM)

Question: And the “Functional observational battery parameters” value [23]?
Answer: No change

Question: And the “improvement of SQ109 activity” value [24]?
Answer: fourfold

Question: And the in vitro interaction [24]?
Answer: synergistic; also recorded: additive

Question: What about the “activity against other Mycobacteria” value [25] of the same compound?
Answer: active

Question: And the “human CYP450 enzymes producing the four major metabolites” value (CYP450 2D6 and 2C19)?
Answer: CYP450 2D6 and 2C19

Question: And the “interaction in macrophage intracellular killing assay” value (Mtb inside macrophages [26])?
Answer: synergy

Question: And the Blood pressure ([27]; at 75 and 140 mg/m^2)?
Answer: No change

Question: And the Body weights [27, 34]?
Answer: No change

Question: And the Clinical observations [27, 34]?
Answer: No deaths

Question: What about the “Clinical pathology: hematology or clinical chemistry” value [27, 34] of the same compound?
Answer: No change

Question: And the “ECG waveforms (rhythms and morphology)” value [27, 34]?
Answer: No change

Question: And the “Heart rate/ECG data” value [27, 34]?
Answer: No change

Question: And the “Functional observational battery parameters” value [28]?
Answer: No change

Question: What about the Minute volume [29] of the same compound?
Answer: No change

Question: And the Respiratory rate [29]?
Answer: No change

Question: What about the Tidal volume [29] of the same compound?
Answer: No change

Question: And the “time to kill intracellular Mtb in infected macrophage assay” value (Mtb inside macrophages [30]; SQ109 with sutezolid)?
Answer: improved synergistically

Question: What about the “reduction of intracellular Mtb” value (Mtb inside macrophages [30]; at its MIC) of the same compound?
Answer: 99%

Question: What about the “killing of Mtb inside macrophages relative to INH and EMB” value (Mtb inside macrophages [30]) of the same compound?
Answer: equivalent to INH and superior to EMB

Question: What about the “in vivo drug–drug interactions or PK changes” value [31] of the same compound?
Answer: no in vivo adverse drug–drug interactions or PK changes

Question: And the “subjects with lung concentrations above the MIC for Mtb” value ([32]; 12 h after dosing, expected from plasma concentration–time profile)?
Answer: approximately 50%

Question: And the serious adverse events ([32]; Phase Ic, 300 mg daily for 14 days)?
Answer: no SAEs

Question: What about the “time to steady-state conditions” value ([32]; daily administration of 300 mg) of the same compound?
Answer: ≤ 10 days

Question: And the “lung concentration relative to SQ109 MIC” value ([32]; steady state, once-daily 300 mg, from preclinical plasma/lung relationship)?
Answer: approximately 5.8 fold

Question: What about the MIC (Clostridium difficile) of the same compound?
Answer: 8 to 16 µg/mL (≈ 24.2 to 48.4 µM)
